The values that follow come from patent US20140023611A1 (priority 2010, published 2014).

Structures can show the parent of a compound that is named as a salt. Some results are limits rather than exact numbers.

In data set [1] the target is T1, rat NaP2b (SLC34A2) (Rattus norvegicus, UniProt Q9JJ09).
T1 construct: host or cells: HEK293
T1 sequence (Q9JJ09 1-695): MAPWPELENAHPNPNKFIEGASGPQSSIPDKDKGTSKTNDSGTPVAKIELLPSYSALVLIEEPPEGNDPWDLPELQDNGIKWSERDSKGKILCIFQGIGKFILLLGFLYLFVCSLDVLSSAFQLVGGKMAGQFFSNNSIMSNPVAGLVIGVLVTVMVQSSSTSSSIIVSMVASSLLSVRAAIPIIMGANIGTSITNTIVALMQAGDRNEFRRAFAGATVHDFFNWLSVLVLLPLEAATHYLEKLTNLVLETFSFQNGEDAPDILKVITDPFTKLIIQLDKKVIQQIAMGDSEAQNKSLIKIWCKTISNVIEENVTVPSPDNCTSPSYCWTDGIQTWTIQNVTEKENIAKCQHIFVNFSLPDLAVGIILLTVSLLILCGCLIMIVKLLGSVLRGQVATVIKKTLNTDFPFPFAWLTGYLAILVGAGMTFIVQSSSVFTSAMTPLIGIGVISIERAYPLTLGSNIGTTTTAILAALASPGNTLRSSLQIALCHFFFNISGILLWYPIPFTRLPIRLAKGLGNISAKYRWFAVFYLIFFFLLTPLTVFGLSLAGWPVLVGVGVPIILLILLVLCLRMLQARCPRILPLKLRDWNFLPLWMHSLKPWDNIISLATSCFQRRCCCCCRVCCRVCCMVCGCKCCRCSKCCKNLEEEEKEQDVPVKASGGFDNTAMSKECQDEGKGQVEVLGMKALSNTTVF
Kind of data set: Inhibition of NaP2b-mediated Pi (33P) uptake in transfected HEK293 cells, rat NaP2b. Format: cell-based. The settings on record: 33P Pi uptake, 0.1 mM phosphate, value given as pIC50 range. The procedure, abridged: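 The cells transiently expressed NaP2b after Lipofectamine transfection. Each compound was run in duplicate over twelve concentrations, 0.1 nM–30 uM.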

Data set [2] is described as follows: Determination of compound Cmax and AUC after oral gavage (plasma LC-MS/MS). It is filed as in vivo, Sprague-Dawley rats. Particulars: Sprague-Dawley, rat, plasma, po, Structure (I) examples. The procedure, abridged:
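Plasma exposure measured by LC-MS/MS after acetonitrile precipitation with internal standard, quantified against a standard curve made in plasma. Compound given orally by gavage to Sprague-Dawley rats at nominal 2.5 or 10 mg/kg, with K2EDTA plasma sampled at 0.5, 1, 2 and 4 h.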

Where [3] appears, read: Table 15, actual oral dose 15-40 mg/kg, plasma 0.5-4 h.
Setting [4] is: Table 15, actual oral dose 3-15 mg/kg, plasma 0.5-4 h.

In general, IC50 refers to the concentration that gives 50% inhibition. Lower therefore signals greater potency in that assay. Usually AUC stands for concentration integrated over time. In general, Cmax refers to the peak of the concentration-time curve. On to `CCN(CC)c1ccc(NC(=O)c2cccc(CCCOCCOCCOCCOCCNS(=O)(=O)c3ccc(C(=O)N(CCOC)CCOCCOCCOCCOCCOCCOCCOC)cc3)c2)c(-c2cc(C(=O)NCc3cccc(C(F)(F)F)c3)ccn2)c1` [Example 272, 2-(2-(3-(1-(4-(2,5,8,11,14,17,20-heptaoxadocosan-22-yl(2-methoxyethyl)carbamoyl)phenylsulfonamido)-3,6,9,12-tetraoxapentadecan-15-yl)benzamido)-5-(diethylamino)phenyl)-N-(3-(trifluoromethyl)benzyl)isonicotinamide], for which the IC50 in data set [1] is 1000 to 7940 nM. For the same compound, in data set [2] (setting [3]), the AUC was < 10 ng·h/mL. The Cmax in data set [2] (Table 15, plasma 0.5-4 h) is < 10 ng/mL.
For the compound `CCN(CC)c1ccc(NC(=O)c2cccc(CSCCOCCOCCOCCOCCOCCOCCOCCOC)c2)c(-c2cc(C(=O)N[C@H]3CCCc4ccccc43)ccn2)c1` [Example 286, (S)-2-(2-(3-(2,5,8,11,14,17,20,23-octaoxa-26-thiaheptacosan-27-yl)benzamido)-5-(diethylamino)phenyl)-N-(1,2,3,4-tetrahydronaphthalen-1-yl)isonicotinamide], in data set [1], the 50% inhibitory concentration (IC50) was < 1000 nM. In data set [2] (setting [4]), the AUC is < 10 ng·h/mL and the Cmax was < 10 ng/mL.
Take `CCN(CC)c1ccc(NC(=O)c2cccc(CCCOCCOCCOCCOCCOCCOCCOCCOCCOCCC(=O)O)c2)c(-c2cc(C(=O)NCc3cccc(C(F)(F)F)c3)ccn2)c1` [Example 298, 31-(3-(4-(diethylamino)-2-(4-(3-(trifluoromethyl)benzylcarbamoyl)pyridin-2-yl)phenylcarbamoyl)phenyl)-4,7,10,13,16,19,22,25,28-nonaoxahentriacontan-1-oic acid]: the IC50 in data set [1] is 1000 to 7940 nM. In addition, the exposure (AUC) in data set [2] (setting [3]) is < 30 ng·h/mL. For the same compound, the Cmax in data set [2] (Table 15, plasma 0.5-4 h) was < 30 ng/mL.
The like results for `CCN(CC)c1ccc(NC(=O)c2cccc(CCCOCCOCCOCCOCCOCCOCCC(=O)O)c2)c(-c2cc(C(=O)NCc3cccc(C(F)(F)F)c3)ccn2)c1` [Example 299, 22-(3-(4-(diethylamino)-2-(4-(3-(trifluoromethyl)benzylcarbamoyl)pyridin-2-yl)phenylcarbamoyl)phenyl)-4,7,10,13,16,19-hexaoxadocosan-1-oic acid] were, in that order, 1000 to 7940 nM, < 30 ng·h/mL and < 30 ng/mL.
The like results for `CCN(CC)c1ccc(NC(=O)c2cccc(CCCOCCOCCOCCOCCOCCC(=O)O)c2)c(-c2cc(C(=O)NCc3cccc(C(F)(F)F)c3)ccn2)c1` [Example 300, 19-(3-(4-(diethylamino)-2-(4-(3-(trifluoromethyl)benzylcarbamoyl)pyridin-2-yl)phenylcarbamoyl)phenyl)-4,7,10,13,16-pentaoxanonadecan-1-oic acid] were, in that order, 1000 to 7940 nM, < 30 ng·h/mL and < 10 ng/mL.
As for `CCN(CC)c1ccc(NC(=O)c2cccc(C(=O)N(C)CCN(CCOC)CCOCCOCCOCCOCCOCCOCCOC)c2)c(-c2cc(C(=O)NCc3cccc(C(F)(F)F)c3)ccn2)c1` [Example 335, N^1-(4-(Diethylamino)-2-(4-(3-(trifluoromethyl)benzylcarbamoyl)pyridin-2-yl)phenyl)-N^3-(23-(2-methoxyethyl)-2,5,8,11,14,17,20-heptaoxa-23-azapentacosan-25-yl)-N^3-methylisophthalamide, trifluoroacetate], the IC50 in data set [1] is 1000 to 7940 nM. Also, in data set [2] (setting [4]), the AUC was > 50 ng·h/mL and the Cmax is < 10 ng/mL.
